≈ marks a conversion by molar mass, not a printed value.
Legend:
Punto Toro virus = assay: Antiviral CPE reduction assay, Punto Toro virus in VERO cells; type: cell-based, Punta toro virus; details: for Antiviral EC50 Punto Toro virus: VERO cells, CPE by microscopy, mean of two experiments; for EC50: Punta Toro virus, Vero, read-out: Antiviral EC50 Punto Toro virus
[1] = test system: human embryonic lung (HEL) fibroblast cells; details: minimum cytotoxic concentration, microscopic inspection of cell morphology
VERO cells = details: minimum cytotoxic concentration, microscopic inspection of cell morphology
HSV-2 = assay: Antiviral CPE reduction assay, HSV-2 in HEL cells; type: cell-based, Herpes simplex virus-2; details: for Antiviral EC50 HSV-2: HEL cells, CPE by microscopy, mean of two experiments; for EC50: Human alphaherpesvirus 2, HEL, read-out: Antiviral EC50 HSV-2
DNA virus = assay: Anti-DNA virus activity in HEL cells; type: cell-based
Vaccinia virus = assay: microbe, parasite or virus in culture; type: cell-based; details: for EC50: Orthopoxvirus vaccinia, HEL, read-out: Antiviral EC50 Vaccinia virus
Coxsackie B4 virus = assay: Antiviral CPE reduction assay, Coxsackie B4 virus in VERO cells; type: cell-based; details: for Antiviral EC50 Coxsackie B4 virus: VERO cells, CPE by microscopy, mean of two experiments; for EC50: Enterovirus B, B4, Vero, read-out: Antiviral EC50 Coxsackie B4 virus
CRFK feline kidney cells = details: MTS cell viability assay
ACV^r-HSV-1 = assay: Antiviral CPE reduction assay, ACVr-HSV-1 in HEL cells; type: cell-based; details: for Antiviral EC50 ACV^r-HSV-1: HEL cells, CPE by microscopy, mean of two experiments; for EC50: Human alphaherpesvirus 1, HEL, read-out: Antiviral EC50 ACV^r-HSV-1
Sindbis virus = assay: Antiviral CPE reduction assay, Sindbis virus in VERO cells; type: cell-based; details: for Antiviral EC50 Sindbis virus: VERO cells, CPE by microscopy, mean of two experiments; for EC50: Sindbis virus, Vero, read-out: Antiviral EC50 Sindbis virus
Parainfluenza-3 virus = assay: Antiviral CPE reduction assay, Parainfluenza-3 virus in VERO cells; type: cell-based; details: for Antiviral EC50 Parainfluenza-3 virus: VERO cells, CPE by microscopy, mean of two experiments; for EC50: Vero, read-out: Antiviral EC50 Parainfluenza-3 virus
HSV-1 = assay: Antiviral CPE reduction assay, HSV-1 in HEL cells; type: cell-based, Herpes simplex virus-1; details: for Antiviral EC50 HSV-1: HEL cells, CPE by microscopy, mean of two experiments; for EC50: Human alphaherpesvirus 1, HEL, read-out: Antiviral EC50 HSV-1
Reovirus-1 = assay: Antiviral CPE reduction assay, Reovirus-1 in VERO cells; type: cell-based; details: for Antiviral EC50 Reovirus-1: VERO cells, CPE by microscopy, mean of two experiments; for EC50: Vero, read-out: Antiviral EC50 Reovirus-1
[2] = test system: Mycobacterium tuberculosis H37Rv; details: for H37Rv Finding Activity: M. tuberculosis H37Rv, MABA in BACTEC 12B medium
[3] = test system: Vesicular stomatitis virus; type: cell-based
Feline coronavirus = assay: microbe, parasite or virus in culture; details: Alphacoronavirus 1, CRFK, read-out: Antiviral EC50 Feline coronavirus
[4] = test system: Mycobacterium tuberculosis H37Rv; assay: microbe, parasite or virus in culture; details: for MIC: read-out: H37Rv Finding MIC
Feline herpesvirus = assay: Antiviral CPE reduction assay, Feline herpesvirus in CRFK cells; type: cell-based; details: Felid alphaherpesvirus 1, CRFK, read-out: Antiviral EC50 Feline herpesvirus
in vitro [5] = details: cat
in vitro [6] = details: African green monkey

SMILES	Antiviral EC50 Punto Toro virus (Punto Toro virus)	Cytotoxicity MCC [1]	Cytotoxicity MCC (VERO cells)	Antiviral EC50 HSV-2 (HSV-2)	antiviral EC50 values, anti-DNA virus activity (DNA virus)	Antiviral EC50 Vaccinia virus (Vaccinia virus)	Antiviral EC50 Coxsackie B4 virus (Coxsackie B4 virus)	Cytotoxicity CC50 (CRFK feline kidney cells)	Antiviral EC50 ACV^r-HSV-1 (ACV^r-HSV-1)	Antiviral EC50 Sindbis virus (Sindbis virus)	Antiviral EC50 Parainfluenza-3 virus (Parainfluenza-3 virus)	Antiviral EC50 HSV-1 (HSV-1)	Antiviral EC50 Reovirus-1 (Reovirus-1)	H37Rv Finding Activity [2]	Antiviral EC50 Vesicular stomatitis virus [3]	EC50 (Punto Toro virus)	EC50 (Feline coronavirus)	MIC [4]	EC50 (HSV-2)	EC50 (Vaccinia virus)	further results
O=C(Cc1csc2nc(-c3ccc(Br)cc3)cn12)NN=C1CCC(c2ccccc2)CC1 (stereo not drawn) [Compound 4c, 6-(4-Bromophenyl)–N^2-(4-phenylcyclohexylidene)imidazo[2,1-b]thiazole-3-acetohydrazide]	>100 µg/mL	≥100 µg/mL	>100 µg/mL	≥45 µg/mL	about 45 µg/mL	45 µg/mL	>100 µg/mL	>100 µg/mL	≥45 µg/mL	>100 µg/mL	>100 µg/mL	45 µg/mL	>100 µg/mL	Weak Active	>100 µg/mL						H37Rv Finding MIC [2]: >100 µg/mL
O=C(Cc1csc2nc(-c3ccc(Br)cc3)cn12)NN=C1CCC(c2ccc(O)cc2)CC1 (stereo not drawn) [Compound 4d, 6-(4-Bromophenyl)–N^2-(4-hydroxyphenylcyclohexylidene)imidazo[2,1-b]thiazole-3-acetohydrazide]	>100 µg/mL	>100 µg/mL	>100 µg/mL	45 µg/mL	about 45 µg/mL	45 µg/mL	>100 µg/mL	68 µg/mL	45 µg/mL	>100 µg/mL	>100 µg/mL	45 µg/mL	>100 µg/mL		>100 µg/mL						
O=C(Cc1csc2nc(-c3ccc(Br)cc3)cn12)NN1C(=O)CSC12CCC(c1ccccc1)CC2 (stereo not drawn) [Compound 5c, 2-[6-(4-Bromophenyl)imidazo[2,1-b]thiazole-3-yl]-N-(3-oxo-8-phenyl-1-thia-4-azaspiro[4.5]dec-4-yl)acetamide]		20 µg/mL	20 µg/mL											Active		> 100 µg/mL	> 100 µg/mL	0.854 µg/mL (≈ 1.47 µM)	> 100 µg/mL	> 100 µg/mL	IC50 ([4]; read-out: H37Rv Finding lC50): 0.76 µg/mL (≈ 1.31 µM); EC50 (Coxsackie B4 virus): > 100 µg/mL; EC50 (ACV^r-HSV-1): > 100 µg/mL; EC50 (Sindbis virus): > 100 µg/mL; EC50 (Parainfluenza-3 virus): > 100 µg/mL; EC50 (HSV-1): > 100 µg/mL; EC50 (Reovirus-1): > 100 µg/mL; EC50 (Feline herpesvirus): > 100 µg/mL
O=C(Cc1csc2nc(-c3ccc(Br)cc3)cn12)NN1C(=O)CSC12CCC(c1ccc(O)cc1)CC2 (stereo not drawn) [Compound 5d, 2-[6-(4-Bromophenyl)imidazo[2,1-b]thiazole-3-yl]-N-(3-oxo-8-(4-hydroxyphenyl)-1-thia-4-azaspiro[4.5]dec-4-yl)acetamide]		20 µg/mL	>100 µg/mL													> 100 µg/mL	4.8 µg/mL (≈ 8.03 µM)		> 100 µg/mL	> 100 µg/mL	selectivity ratio (in vitro [5]): > 20; EC50 (Coxsackie B4 virus): > 100 µg/mL; EC50 (ACV^r-HSV-1): > 100 µg/mL; EC50 (Sindbis virus): > 100 µg/mL; EC50 (Parainfluenza-3 virus): > 100 µg/mL; EC50 (HSV-1): > 100 µg/mL; EC50 (Reovirus-1): > 100 µg/mL; EC50 (Feline herpesvirus): 21 µg/mL (≈ 35.1 µM)
CO[C@H]1/C=C/O[C@@]2(C)Oc3c(C)c(O)c4c(O)c(c(/C=N/N5CCN(C)CC5)c(O)c4c3C2=O)NC(=O)/C(C)=C\C=C\[C@H](C)[C@H](O)[C@@H](C)[C@@H](O)[C@@H](C)[C@H](OC(C)=O)[C@@H]1C [Rifampin, reference compound]														Active				0.125 µg/mL (≈ 0.152 µM)			CC50 (in vitro [6]): > 100 µg/mL

From PMC7112121 (Bioorganic Chemistry, 2019)
